Results reported in patent publication US20230203043A1, “NOVEL IMIDAZOPYRAZINE DERIVATIVES” (Hoffmann-La Roche Inc., priority 2020, published 2023).
Where a name gives a salt, the structure may show the parent alone.

tested on: Acinetobacter baumannii ATCC17961; test: Antimicrobial susceptibility testing: 90% growth inhibitory concentration (IC90) determination in Iso-Sensitest broth, OD600 growth; assay type: cell-based; conditions: Acinetobacter baumannii, ATCC17961, 16 h, read-out: A. baumannii ATCC 17961 IC90 (uM), strain ATCC 17961, OD600 growth over 16 h
How it was run: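 Serial twofold dilution, 10 points, e.g. 50–0.097 μM final; ~5×10^(5) CFU/ml; 35±2° C, 16 h; kinetic OD600 every 20 min; IC90 from log-phase inhibition.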

| Structure (SMILES) | IC90 [µM] |
| --- | --- |
| Cc1cc(Nc2nccn3c(-c4cn(CC#N)nc4C(F)(F)F)cnc23)ccc1C(=O)NCC(=O)NC1CC(N)C1 (stereo not drawn) [Example 749, N-[2-[(3-aminocyclobutyl)amino]-2-oxo-ethyl]-4-[[3-[1-(cyanomethyl)-3-(trifluoromethyl)pyrazol-4-yl]imidazo[1,2-a]pyrazin-8-yl]amino]-2-methyl-benzamide formate] | 0.619 |
| Cc1cc(Nc2nccn3c(-c4cn(CC#N)nc4C(F)(F)F)cnc23)ccc1C(=O)NCC(=O)N[C@@H]1CCNC1 [Example 750, 4-[[3-[1-(cyanomethyl)-3-(trifluoromethyl)pyrazol-4-yl]imidazo[1,2-a]pyrazin-8-yl]amino]-2-methyl-N-[2-oxo-2-[[(3R)-pyrrolidin-3-yl]amino]ethyl]benzamide formate] | 0.625 |
| Cc1cc(Nc2nccn3c(-c4cn(CC#N)nc4C(F)(F)F)cnc23)ccc1C(=O)NCC(=O)N1CC(N)C1 [Example 751, N-[2-(3-aminoazetidin-1-yl)-2-oxo-ethyl]-4-[[3-[1-(cyanomethyl)-3-(trifluoromethyl)pyrazol-4-yl]imidazo[1,2-a]pyrazin-8-yl]amino]-2-methyl-benzamide formate] | 0.627 |
| Cc1cc(Nc2nccn3c(-c4cn(CC#N)nc4C(F)(F)F)cnc23)ccc1C(=O)NCC(=O)NCCN(C)C [Example 752, 4-[[3-[1-(cyanomethyl)-3-(trifluoromethyl)pyrazol-4-yl]imidazo[1,2-a]pyrazin-8-yl]amino]-N-[2-[2-(dimethylamino)ethylamino]-2-oxo-ethyl]-2-methyl-benzamide formate] | 0.636 |
| CCc1cc(Nc2nccn3c(-c4c[nH]nc4C(F)(F)F)cnc23)ccc1C(=O)NCC(=O)N1CCC(N)CC1 [Example 756, N-[2-(4-amino-1-piperidyl)-2-oxo-ethyl]-2-ethyl-4-[[3-[3-(trifluoromethyl)-1H-pyrazol-4-yl]imidazo[1,2-a]pyrazin-8-yl]amino]benzamide formate] | 0.679 |
| CCc1cc(Nc2nccn3c(-c4cn(CC#N)nc4C(F)(F)F)cnc23)ccc1C(=O)NCC(=O)N[C@@H]1CCNC1 [Example 757, 4-[[3-[1-(cyanomethyl)-3-(trifluoromethyl)pyrazol-4-yl]imidazo[1,2-a]pyrazin-8-yl]amino]-2-ethyl-N-[2-oxo-2-[[(3R)-pyrrolidin-3-yl]amino]ethyl]benzamide formate] | 0.689 |
| CCc1cc(Nc2nccn3c(-c4cn(CC#N)nc4C(F)(F)F)cnc23)ccc1C(=O)NCC(=O)N[C@H]1CCNC1 [Example 758, 4-[[3-[1-(cyanomethyl)-3-(trifluoromethyl)pyrazol-4-yl]imidazo[1,2-a]pyrazin-8-yl]amino]-2-ethyl-N-[2-oxo-2-[[(3S)-pyrrolidin-3-yl]amino]ethyl]benzamide formate] | 0.693 |
| Cc1cc(Nc2nccn3c(-c4cn(CC#N)nc4C(F)(F)F)cnc23)ccc1C(=O)NCC(=O)NCCN [Example 760, N-[2-(2-aminoethylamino)-2-oxo-ethyl]-4-[[3-[1-(cyanomethyl)-3-(trifluoromethyl)pyrazol-4-yl]imidazo[1,2-a]pyrazin-8-yl]amino]-2-methyl-benzamide formate] | 0.718 |
| Cc1cc(Nc2nccn3c(-c4cn(CC#N)nc4C(F)(F)F)cnc23)ccc1C(=O)N[C@H](C)C(=O)N1CC[C@@H](N)C1 [Example 761, N-[(1R)-2-[(3R)-3-aminopyrrolidin-1-yl]-1-methyl-2-oxo-ethyl]-4-[[3-[1-(cyanomethyl)-3-(trifluoromethyl)pyrazol-4-yl]imidazo[1,2-a]pyrazin-8-yl]amino]-2-methyl-b enzamide formate] | 0.721 |

same assay, conditions: Acinetobacter baumannii, ATCC17961, 16 h, strain ATCC 17961, OD600 growth over 16 h, read-out: A. baumannii ATCC 17961 IC90

| Structure (SMILES) | IC90 [µM] |
| --- | --- |
| Cc1cc(Nc2nccn3c(-c4cn(CC(F)F)nc4C(F)(F)F)cnc23)cc(F)c1C(=O)N[C@H](C)CNC(=O)[C@@H]1C[C@@H](O)CN1 [Example 744, (2S,4R)-N-((R)-2-(4-((3-(1-(2,2-difluoroethyl)-3-(trifluoromethyl)-1H-pyrazol-4-yl)imidazo[1,2-a]pyrazin-8-yl)amino)-2-fluoro-6-methylbenzamido)propyl)-4-hydroxypyrrolidine-2-carboxamide] | 0.557 |
| Cc1cc(Nc2nccn3c(-c4cn(CC#N)nc4C(F)(F)F)cnc23)ccc1C(=O)N[C@H](C)C(=O)N[C@@H]1CCNC1 [Example 746, 4-[[3-[1-(cyanomethyl)-3-(trifluoromethyl)pyrazol-4-yl]imidazo[1,2-a]pyrazin-8-yl]amino]-2-methyl-N-[(1R)-1-methyl-2-oxo-2-[[(3R)-pyrrolidin-3-yl]amino]ethyl] benzamide formate] | 0.581 |
| CCc1cc(Nc2nccn3c(-c4c[nH]nc4C(F)(F)F)cnc23)ccc1C(=O)NCCCNC(=O)[C@@H](C)NC(=O)C(F)(F)F [Example 748, (R)-2-ethyl-N-(3-(2-(2,2,2-trifluoroacetamido)propanamido)propyl)-4-((3-(3-(trifluoromethyl)-1H-pyrazol-4-yl)imidazo[1,2-a]pyrazin-8-yl)amino) benzamide] | 0.608 |
| CCc1cc(Nc2nccn3c(-c4cn(CC#N)nc4C(F)(F)F)cnc23)ccc1C(=O)NCCCNC(=O)[C@@H]1C[C@@H](O)CN1 [Example 754, (2S,4R)-N-(3-(4-((3-(1-(cyanomethyl)-3-(trifluoromethyl)-1H-pyrazol-4-yl)imidazo[1,2-a]pyrazin-8-yl)amino)-2-ethylbenzamido)propyl)-4-hydroxypyrrolidine-2-carboxamide] | 0.671 |
| CCc1cc(Nc2nccn3c(-c4c[nH]nc4C(F)(F)F)cnc23)ccc1C(=O)NCCCNC(=O)[C@H](C)NC(=O)C(F)(F)F [Example 759, (S)-2-ethyl-N-(3-(2-(2,2,2-trifluoroacetamido)propanamido)propyl)-4-((3-(3-(trifluoromethyl)-1H-pyrazol-4-yl)imidazo[1,2-a]pyrazin-8-yl)amino) benzamide] | 0.693 |
| CCc1cc(Nc2nccn3c(-c4c[nH]nc4C(F)(F)F)cnc23)ccc1C(=O)N[C@H](C)CNC(=O)[C@@H]1CCCN1 [Example 762, (S)-N-((R)-2-(2-ethyl-4-((3-(3-(trifluoromethyl)-1H-pyrazol-4-yl)imidazo[1,2-a]pyrazin-8-yl)amino)benzamido)propyl) pyrrolidine-2-carboxamide] | 0.722 |
| O=C(c1ccc(Nc2nccn3c(-c4cn(C(F)F)nc4C(F)(F)F)cnc23)cc1Cl)N1CC2(C1)CN(C(=O)[C@@H]1CCCN1)C2 [Example 763, (S)-(2-chloro-4-((3-(1-(difluoromethyl)-3-(trifluoromethyl)-1H-pyrazol-4-yl)imidazo[1,2-a]pyrazin-8-yl)amino)phenyl)(6-prolyl-2,6-diazaspiro[3.3]heptan-2-yl)methanone] | 0.75 |

Other lines, results leading:

| IC90 [µM] | Structure (SMILES) |
| --- | --- |
| 0.532 | CCc1cc(Nc2nccn3c(-c4cn(CC(F)F)nc4C(F)F)cnc23)ccc1C(=O)N1CCN(C(=O)[C@H]2C[C@H](N)C2)CC1 [Example 743, (4-((1r,3r)-3-aminocyclobutane-1-carbonyl)piperazin-1-yl)(4-((3-(1-(2,2-difluoroethyl)-3-(difluoromethyl)-1H-pyrazol-4-yl)imidazo[1,2-a]pyrazin-8-yl)amino)-2-ethylphenyl) methanone] |
| 0.569 | CCc1cc(Nc2nccn3c(-c4cn(C(C)C#N)nc4C(F)(F)F)cnc23)ccc1C(=O)NCCOCCN1CCOCC1 (stereo not drawn) [Example 745, 4-((3-(1-(1-cyanoethyl)-3-(trifluoromethyl)-1H-pyrazol-4-yl)imidazo[1,2-a]pyrazin-8-yl)amino)-2-ethyl-N-(2-(2-morpholinoethoxy)ethyl) benzamide formate] |
| 0.598 | C#CCn1cc(-c2cnc3c(Nc4ccc(C(=O)N5CCN(C(=O)[C@@H](C)N)CC5)c(CC)c4)nccn23)c(C(F)F)n1 [Example 747, (R)-2-amino-1-(4-(4-((3-(3-(difluoromethyl)-1-(prop-2-yn-1-yl)-1H-pyrazol-4-yl)imidazo[1,2-a]pyrazin-8-yl)amino)-2-ethylbenzoyl)piperazin-1-yl)propan-1-one] |
| 0.659 | CCc1cc(Nc2nccn3c(-c4c[nH]nc4C(F)(F)F)cnc23)ccc1C(=O)NCC(=O)N1CCNCC1 [Example 753, 2-ethyl-N-(2-oxo-2-piperazin-1-yl-ethyl)-4-[[3-[3-(trifluoromethyl)-1H-pyrazol-4-yl]imidazo[1,2-a]pyrazin-8-yl]amino] benzamide formate] |
| 0.678 | C#CCn1cc(-c2cnc3c(Nc4ccc(C(=O)N5CCN(C(=O)C6(O)CCNCC6)CC5)c(CC)c4)nccn23)c(C(F)F)n1 [Example 755, (4-(4-((3-(3-(difluoromethyl)-1-(prop-2-yn-1-yl)-1H-pyrazol-4-yl)imidazo[1,2-a]pyrazin-8-yl)amino)-2-ethylbenzoyl)piperazin-1-yl)(4-hydroxypiperidin-4-yl) methanone] |
| 0.809 | CCc1cc(Nc2nccn3c(-c4cn(CC(F)F)nc4C(F)F)cnc23)ccc1C(=O)N1CCN(C(=O)C2(O)CCNCC2)CC1 [Example 764, (4-(4-((3-(1-(2,2-difluoroethyl)-3-(difluoromethyl)-1H-pyrazol-4-yl)imidazo[1,2-a]pyrazin-8-yl)amino)-2-ethylbenzoyl)piperazin-1-yl)(4-hydroxypiperidin-4-yl)methanone] |
| 0.895 | CCc1cc(Nc2nccn3c(-c4cn(CC#N)nc4C(F)(F)F)cnc23)ccc1C(=O)NCC(=O)NCCN [Example 765, N-[2-(2-aminoethylamino)-2-oxo-ethyl]-4-[[3-[1-(cyanomethyl)-3-(trifluoromethyl)pyrazol-4-yl]imidazo[1,2-a]pyrazin-8-yl]amino]-2-ethyl-benzamide] |
| 0.903 | CCc1cc(Nc2nccn3c(-c4cn(CC(F)F)nc4C(F)F)cnc23)ccc1C(=O)N1CCN(C(=O)CN)CC1 [Example 766, 2-amino-1-(4-(4-((3-(1-(2,2-difluoroethyl)-3-(difluoromethyl)-1H-pyrazol-4-yl)imidazo[1,2-a]pyrazin-8-yl)amino)-2-ethylbenzoyl)piperazin-1-yl)ethan-1-one] |
